{"source": "patent US20140343000A1", "about": "(priority 2011, published 2014)"}
{"test_system": "recombinant NL4-3 virus (Renilla luciferase in nef, Gag P373S; NLRluc) in MT-2 cells", "assay": "whole plant or invertebrate", "assay_type": "cell-based, HIV", "conditions": "Renilla, NL43, luciferase activity in cells infected for 4-5 days with NLRluc recombinants, serial dilutions of inhibitor; class symbols (key in Table 1); read-out: EC50", "outline": "(§1)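 Inhibitor potency against the reporter virus comes from reduced luciferase activity in infected MT-2 cells exposed to a dilution series of compound over 4-5 days.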", "units": {"EC50": "µM"}}
{"smiles": "C=C(C)[C@@H]1CC[C@]2(NC(=O)CN3CCN(C(C)C)CC3)CC[C@]3(C)[C@H](CC[C@@H]4[C@@]5(C)CC=C(c6ccc(C(=O)O)cc6)C(C)(C)[C@@H]5CC[C@]43C)[C@@H]12", "note": "[Example 96, 4-((1R,3aS,5aR,5bR,7aR,11aS,11bR,13aR,13bR)-3a-(2-(4-isopropylpiperazin-1-yl)acetamido)-5a,5b,8,8,11a-pentamethyl-1-(prop-1-en-2-yl)-2,3,3a,4,5,5a,5b,6,7,7a,8,11,11a,11b,12,13,13a,13b-octadecahydro-1H-cyclopenta[a]chrysen-9-yl)benzoic acid]", "EC50": "< 0.1"}
{"smiles": "C=C(C)[C@@H]1CC[C@]2(NC(=O)CN3CCOCC3)CC[C@]3(C)[C@H](CC[C@@H]4[C@@]5(C)CC=C(c6ccc(C(=O)O)cc6)C(C)(C)[C@@H]5CC[C@]43C)[C@@H]12", "note": "[Example 97, 4-((1R,3aS,5aR,5bR,7aR,11aS,11bR,13aR,13bR)-5a,5b,8,8,11a-pentamethyl-3a-(2-morpholinoacetamido)-1-(prop-1-en-2-yl)-2,3,3a,4,5,5a,5b,6,7,7a,8,11,11a,11b,12,13,13a,13b-octadecahydro-1H-cyclopenta[a]chrysen-9-yl)benzoic acid]", "EC50": "< 0.1"}
{"smiles": "C=C(C)[C@@H]1CC[C@]2(NC(=O)CN3CCSCC3)CC[C@]3(C)[C@H](CC[C@@H]4[C@@]5(C)CC=C(c6ccc(C(=O)O)cc6)C(C)(C)[C@@H]5CC[C@]43C)[C@@H]12", "note": "[Example 98, 4-((1R,3aS,5aR,5bR,7aR,11aS,11bR,13aR,13bR)-5a,5b,8,8,11a-pentamethyl-1-(prop-1-en-2-yl)-3a-(2-thiomorpholinoacetamido)-2,3,3a,4,5,5a,5b,6,7,7a,8,11,11a,11b,12,13,13a,13b-octadecahydro-1H-cyclopenta[a]chrysen-9-yl)benzoic acid]", "EC50": "< 0.1"}
{"smiles": "C=C(C)[C@@H]1CC[C@]2(NC(=O)C(CC3CCCCC3)N3CCS(=O)(=O)CC3)CC[C@]3(C)[C@H](CC[C@@H]4[C@@]5(C)CC=C(c6ccc(C(=O)O)cc6)C(C)(C)[C@@H]5CC[C@]43C)[C@@H]12", "note": "(stereo partly drawn) [Example 99, benzoic acid, 4-[(1R,3aS,5aR,5bR,7aR,11aS,11bR,13aR,13bR)-3a-[[3-cyclohexyl-2-(1,1-dioxido-4-thiomorpholinyl)-1-oxopropyl]amino]-2,3,3a,4,5,5a,5b,6,7,7a,8,11,11a,11b,12,13,13a,13b-octadecahydro-5a,5b,8,8,11a-pentamethyl-1-(1-methylethenyl)-1H-cyclopenta[a]chrysen-9-yl]]", "EC50": "< 0.1"}
{"smiles": "C=C(C)[C@@H]1CC[C@]2(NC(=O)CN(C)C3CCS(=O)(=O)C3)CC[C@]3(C)[C@H](CC[C@@H]4[C@@]5(C)CC=C(c6ccc(C(=O)O)cc6)C(C)(C)[C@@H]5CC[C@]43C)[C@@H]12", "note": "(stereo partly drawn) [Example 100, benzoic acid, 4-[(1R,3aS,5aR,5bR,7aR,11aS,11bR,13aR,13bR)-2,3,3a,4,5,5a,5b,6,7,7a,8,11,11a,11b,12,13,13a,13b-octadecahydro-5a,5b,8,8,11a-pentamethyl-1-(1-methylethenyl)-3a-[[[methyl(tetrahydro-1,1-dioxido-3-thienyl)amino]acetyl]amino]-1H-cyclopenta[a]chrysen-9-yl]]", "EC50": "< 0.1"}
{"smiles": "C=C(C)[C@@H]1CC[C@]2(NC(=O)Cc3cnccn3)CC[C@]3(C)[C@H](CC[C@@H]4[C@@]5(C)CC=C(c6ccc(C(=O)O)cc6)C(C)(C)[C@@H]5CC[C@]43C)[C@@H]12", "note": "[Example 102, 4-((1R,3aS,5aR,5bR,7aR,11aS,11bR,13aR,13bR)-5a,5b,8,8,11a-pentamethyl-1-(prop-1-en-2-yl)-3a-(2-(pyrazin-2-yl)acetamido)-2,3,3a,4,5,5a,5b,6,7,7a,8,11,11a,11b,12,13,13a,13b-octadecahydro-1H-cyclopenta[a]chrysen-9-yl)benzoic acid]", "EC50": "< 0.1"}
{"smiles": "C=C(C)[C@@H]1CC[C@]2(NC(=O)Cn3cnnn3)CC[C@]3(C)[C@H](CC[C@@H]4[C@@]5(C)CC=C(c6ccc(C(=O)O)cc6)C(C)(C)[C@@H]5CC[C@]43C)[C@@H]12", "note": "[Example 103, 4-((1R,3aS,5aR,5bR,7aR,11aS,11bR,13aR,13bR)-3a-(2-(1H-tetrazol-1-yl)acetamido)-5a,5b,8,8,11a-pentamethyl-1-(prop-1-en-2-yl)-2,3,3a,4,5,5a,5b,6,7,7a,8,11,11a,11b,12,13,13a,13b-octadecahydro-1H-cyclopenta[a]chrysen-9-yl)benzoic acid]", "EC50": "< 0.1"}
{"smiles": "C=C(C)[C@@H]1CC[C@]2(NC(=O)CN3C(=O)OCc4ccc(Cl)cc43)CC[C@]3(C)[C@H](CC[C@@H]4[C@@]5(C)CC=C(c6ccc(C(=O)O)cc6)C(C)(C)[C@@H]5CC[C@]43C)[C@@H]12", "note": "[Example 104, 4-((1R,3aS,5aR,5bR,7aR,11aS,11bR,13aR,13bR)-3a-(2-(7-chloro-2-oxo-2,4-dihydro-1H-benzo[d][1,3]oxazin-1-yl)acetamido)-5a,5b,8,8,11a-pentamethyl-1-(prop-1-en-2-yl)-2,3,3a,4,5,5a,5b,6,7,7a,8,11,11a,11b,12,13,13a,13b-octadecahydro-1H-cyclopenta[a]chrysen-9-yl)benzoic acid]", "EC50": "< 0.1"}
{"smiles": "C=C(C)[C@@H]1CC[C@]2(NC(=O)CN3CCOC3=O)CC[C@]3(C)[C@H](CC[C@@H]4[C@@]5(C)CC=C(c6ccc(C(=O)O)cc6)C(C)(C)[C@@H]5CC[C@]43C)[C@@H]12", "note": "[Example 105, 4-((1R,3aS,5aR,5bR,7aR,11aS,11bR,13aR,13bR)-5a,5b,8,8,11a-pentamethyl-3a-(2-(2-oxooxazolidin-3-yl)acetamido)-1-(prop-1-en-2-yl)-2,3,3a,4,5,5a,5b,6,7,7a,8,11,11a,11b,12,13,13a,13b-octadecahydro-1H-cyclopenta[a]chrysen-9-yl)benzoic acid]", "EC50": "< 0.1"}
{"smiles": "C=C(C)[C@@H]1CC[C@]2(NC(=O)CNCCO)CC[C@]3(C)[C@H](CC[C@@H]4[C@@]5(C)CC=C(c6ccc(C(=O)O)cc6)C(C)(C)[C@@H]5CC[C@]43C)[C@@H]12", "note": "[Example 106, 4-((1R,3aS,5aR,5bR,7aR,11aS,11bR,13aR,13bR)-3a-(2-(2-hydroxyethylamino)acetamido)-5a,5b,8,8,11a-pentamethyl-1-(prop-1-en-2-yl)-2,3,3a,4,5,5a,5b,6,7,7a,8,11,11a,11b,12,13,13a,13b-octadecahydro-1H-cyclopenta[a]chrysen-9-yl)benzoic acid]", "EC50": "< 0.1"}
{"smiles": "C=C(C)[C@@H]1CC[C@]2(NC(=O)CN3C(=O)OC[C@@H]3c3ccccc3)CC[C@]3(C)[C@H](CC[C@@H]4[C@@]5(C)CC=C(c6ccc(C(=O)O)cc6)C(C)(C)[C@@H]5CC[C@]43C)[C@@H]12", "note": "[Example 107, 4-((1R,3aS,5aR,5bR,7aR,11aS,11bR,13aR,13bR)-5a,5b,8,8,11a-pentamethyl-3a-(2-((S)-2-oxo-4-phenyloxazolidin-3-yl)acetamido)-1-(prop-1-en-2-yl)-2,3,3a,4,5,5a,5b,6,7,7a,8,11,11a,11b,12,13,13a,13b-octadecahydro-1H-cyclopenta[a]chrysen-9-yl)benzoic acid]", "EC50": "< 0.1"}
{"smiles": "C=C(C)[C@@H]1CC[C@]2(NC(=O)CN[C@H](CO)c3ccccc3)CC[C@]3(C)[C@H](CC[C@@H]4[C@@]5(C)CC=C(c6ccc(C(=O)O)cc6)C(C)(C)[C@@H]5CC[C@]43C)[C@@H]12", "note": "[Example 108, 4-((1R,3aS,5aR,5bR,7aR,11aS,11bR,13aR,13bR)-3a-(2-((S)-2-hydroxy-1-phenylethylamino)acetamido)-5a,5b,8,8,11a-pentamethyl-1-(prop-1-en-2-yl)-2,3,3a,4,5,5a,5b,6,7,7a,8,11,11a,11b,12,13,13a,13b-octadecahydro-1H-cyclopenta[a]chrysen-9-yl)benzoic acid]", "EC50": "< 0.1"}
{"smiles": "C=C(C)[C@@H]1CC[C@]2(NC(=O)CN3CC[C@H](NC(=O)OC(C)(C)C)C3=O)CC[C@]3(C)[C@H](CC[C@@H]4[C@@]5(C)CC=C(c6ccc(C(=O)O)cc6)C(C)(C)[C@@H]5CC[C@]43C)[C@@H]12", "note": "[Example 109, 4-((1R,3aS,5aR,5bR,7aR,11aS,11bR,13aR,13bR)-3a-(2-((S)-3-(tert-butoxycarbonylamino)-2-oxopyrrolidin-1-yl)acetamido)-5a,5b,8,8,11a-pentamethyl-1-(prop-1-en-2-yl)-2,3,3a,4,5,5a,5b,6,7,7a,8,11,11a,11b,12,13,13a,13b-octadecahydro-1H-cyclopenta[a]chrysen-9-yl)benzoic acid]", "EC50": "< 0.1"}
{"smiles": "C=C(C)[C@@H]1CC[C@]2(NC(=O)C(NC3CCS(=O)(=O)C3)C(C)C)CC[C@]3(C)[C@H](CC[C@@H]4[C@@]5(C)CC=C(c6ccc(C(=O)O)cc6)C(C)(C)[C@@H]5CC[C@]43C)[C@@H]12", "note": "(stereo partly drawn) [Example 112, benzoic acid, 4-[(1R,3aS,5aR,5bR,7aR,11aS,11bR,13aR,13bR)-2,3,3a,4,5,5a,5b,6,7,7a,8,11,11a,11b,12,13,13a,13b-octadecahydro-5a,5b,8,8,11a-pentamethyl-1-(1-methylethenyl)-3a-[[3-methyl-1-oxo-2-[(tetrahydro-1,1-dioxido-3-thienyl)amino]butyl]amino]-1H-cyclopenta[a]chrysen-9-yl]]", "EC50": "< 0.1"}
{"smiles": "C=C(C)[C@@H]1CC[C@]2(NC(=O)C3CCCN3S(C)(=O)=O)CC[C@]3(C)[C@H](CC[C@@H]4[C@@]5(C)CC=C(c6ccc(C(=O)O)cc6)C(C)(C)[C@@H]5CC[C@]43C)[C@@H]12", "note": "(stereo partly drawn) [Example 113, 4-((1R,3aS,5aR,5bR,7aR,11aS,11bR,13aR,13bR)-5a,5b,8,8,11a-pentamethyl-3a-(1-(methylsulfonyl)pyrrolidine-2-carboxamido)-1-(prop-1-en-2-yl)-2,3,3a,4,5,5a,5b,6,7,7a,8,11,11a,11b,12,13,13a,13b-octadecahydro-1H-cyclopenta[a]chrysen-9-yl)benzoic acid]", "EC50": "< 0.1"}
{"test_system": "recombinant NL4-3 virus (Renilla luciferase in nef, Gag P373S; NLRluc) in MT-2 cells", "assay": "whole plant or invertebrate", "assay_type": "cell-based, HIV", "conditions": "luciferase activity in cells infected for 4-5 days with NLRluc recombinants, serial dilutions of inhibitor; class symbols (key in Table 1); read-out: EC50", "outline": "as §1", "units": {"EC50": "µM"}}
{"smiles": "C=C(C)[C@@H]1CC[C@]2(NC(=O)CC(c3cccs3)N3CCS(=O)(=O)CC3)CC[C@]3(C)[C@H](CC[C@@H]4[C@@]5(C)CC=C(c6ccc(C(=O)O)cc6)C(C)(C)[C@@H]5CC[C@]43C)[C@@H]12", "note": "(stereo partly shown) [Example 101]", "EC50": "< 0.1"}
